Experimental data reported in US20070021434A1, “NON-NUCLEOSIDE ANTI-HEPACIVIRUS AGENTS AND USES THEREOF” (Migenix Inc., priority 2005, published 2007).
Read-outs that look alike come from different tables or passages of the source.

How the values were obtained:
[1] = target: HCV RdRp (NS5B) (UniProt P26663); assay type: biochemical, hepatitis C virus
[2] = test system: Huh-7 cells, genotype 1b HCV replicon; assay: Inhibition of HCV replication in cell culture, genotype 1b replicon; assay type: cell-based, hepatitis C virus; details: for EC50: Huh-7, genotype 1b replicon, intracellular HCV RNA 24 h after 3 daily doses; for Selectivity Index (CC50/EC50): genotype 1b replicon, CC50 by neutral red uptake
Description: Test compounds were solubilized at 30 mM in 100% tissue culture grade DMSO (Sigma, Inc.). Aliquots of test compounds sufficient for one daily treatment were made in individual tubes and all material was stored at −20° C. On each day of treatment, daily aliquots of the test compounds were suspended in culture medium at room temperature and immediately added to the cell cultures. Compounds were added to dividing cultures once daily for three days at concentrations ranging from about 30 μM to about 0.0003 μM. Media was changed with each addition of compound. The assays were started when cell cultures were at about 30-50% confluence, and the cells reached confluence during the last day of treatment. The assays included untreated control cultures (six total), and triplicate cultures treated with α-interferon and ribavirin as positive antiviral and toxicity controls.
Intracellular HCV RNA levels and cytotoxicity were assessed in triplicate 24 hours after the last compound dose.

[3] = Hepatitis C virus, Huh-7, 24 h, read-out: EC50

Chain of HCV RdRp (NS5B) (P26663 whole entry, looked up): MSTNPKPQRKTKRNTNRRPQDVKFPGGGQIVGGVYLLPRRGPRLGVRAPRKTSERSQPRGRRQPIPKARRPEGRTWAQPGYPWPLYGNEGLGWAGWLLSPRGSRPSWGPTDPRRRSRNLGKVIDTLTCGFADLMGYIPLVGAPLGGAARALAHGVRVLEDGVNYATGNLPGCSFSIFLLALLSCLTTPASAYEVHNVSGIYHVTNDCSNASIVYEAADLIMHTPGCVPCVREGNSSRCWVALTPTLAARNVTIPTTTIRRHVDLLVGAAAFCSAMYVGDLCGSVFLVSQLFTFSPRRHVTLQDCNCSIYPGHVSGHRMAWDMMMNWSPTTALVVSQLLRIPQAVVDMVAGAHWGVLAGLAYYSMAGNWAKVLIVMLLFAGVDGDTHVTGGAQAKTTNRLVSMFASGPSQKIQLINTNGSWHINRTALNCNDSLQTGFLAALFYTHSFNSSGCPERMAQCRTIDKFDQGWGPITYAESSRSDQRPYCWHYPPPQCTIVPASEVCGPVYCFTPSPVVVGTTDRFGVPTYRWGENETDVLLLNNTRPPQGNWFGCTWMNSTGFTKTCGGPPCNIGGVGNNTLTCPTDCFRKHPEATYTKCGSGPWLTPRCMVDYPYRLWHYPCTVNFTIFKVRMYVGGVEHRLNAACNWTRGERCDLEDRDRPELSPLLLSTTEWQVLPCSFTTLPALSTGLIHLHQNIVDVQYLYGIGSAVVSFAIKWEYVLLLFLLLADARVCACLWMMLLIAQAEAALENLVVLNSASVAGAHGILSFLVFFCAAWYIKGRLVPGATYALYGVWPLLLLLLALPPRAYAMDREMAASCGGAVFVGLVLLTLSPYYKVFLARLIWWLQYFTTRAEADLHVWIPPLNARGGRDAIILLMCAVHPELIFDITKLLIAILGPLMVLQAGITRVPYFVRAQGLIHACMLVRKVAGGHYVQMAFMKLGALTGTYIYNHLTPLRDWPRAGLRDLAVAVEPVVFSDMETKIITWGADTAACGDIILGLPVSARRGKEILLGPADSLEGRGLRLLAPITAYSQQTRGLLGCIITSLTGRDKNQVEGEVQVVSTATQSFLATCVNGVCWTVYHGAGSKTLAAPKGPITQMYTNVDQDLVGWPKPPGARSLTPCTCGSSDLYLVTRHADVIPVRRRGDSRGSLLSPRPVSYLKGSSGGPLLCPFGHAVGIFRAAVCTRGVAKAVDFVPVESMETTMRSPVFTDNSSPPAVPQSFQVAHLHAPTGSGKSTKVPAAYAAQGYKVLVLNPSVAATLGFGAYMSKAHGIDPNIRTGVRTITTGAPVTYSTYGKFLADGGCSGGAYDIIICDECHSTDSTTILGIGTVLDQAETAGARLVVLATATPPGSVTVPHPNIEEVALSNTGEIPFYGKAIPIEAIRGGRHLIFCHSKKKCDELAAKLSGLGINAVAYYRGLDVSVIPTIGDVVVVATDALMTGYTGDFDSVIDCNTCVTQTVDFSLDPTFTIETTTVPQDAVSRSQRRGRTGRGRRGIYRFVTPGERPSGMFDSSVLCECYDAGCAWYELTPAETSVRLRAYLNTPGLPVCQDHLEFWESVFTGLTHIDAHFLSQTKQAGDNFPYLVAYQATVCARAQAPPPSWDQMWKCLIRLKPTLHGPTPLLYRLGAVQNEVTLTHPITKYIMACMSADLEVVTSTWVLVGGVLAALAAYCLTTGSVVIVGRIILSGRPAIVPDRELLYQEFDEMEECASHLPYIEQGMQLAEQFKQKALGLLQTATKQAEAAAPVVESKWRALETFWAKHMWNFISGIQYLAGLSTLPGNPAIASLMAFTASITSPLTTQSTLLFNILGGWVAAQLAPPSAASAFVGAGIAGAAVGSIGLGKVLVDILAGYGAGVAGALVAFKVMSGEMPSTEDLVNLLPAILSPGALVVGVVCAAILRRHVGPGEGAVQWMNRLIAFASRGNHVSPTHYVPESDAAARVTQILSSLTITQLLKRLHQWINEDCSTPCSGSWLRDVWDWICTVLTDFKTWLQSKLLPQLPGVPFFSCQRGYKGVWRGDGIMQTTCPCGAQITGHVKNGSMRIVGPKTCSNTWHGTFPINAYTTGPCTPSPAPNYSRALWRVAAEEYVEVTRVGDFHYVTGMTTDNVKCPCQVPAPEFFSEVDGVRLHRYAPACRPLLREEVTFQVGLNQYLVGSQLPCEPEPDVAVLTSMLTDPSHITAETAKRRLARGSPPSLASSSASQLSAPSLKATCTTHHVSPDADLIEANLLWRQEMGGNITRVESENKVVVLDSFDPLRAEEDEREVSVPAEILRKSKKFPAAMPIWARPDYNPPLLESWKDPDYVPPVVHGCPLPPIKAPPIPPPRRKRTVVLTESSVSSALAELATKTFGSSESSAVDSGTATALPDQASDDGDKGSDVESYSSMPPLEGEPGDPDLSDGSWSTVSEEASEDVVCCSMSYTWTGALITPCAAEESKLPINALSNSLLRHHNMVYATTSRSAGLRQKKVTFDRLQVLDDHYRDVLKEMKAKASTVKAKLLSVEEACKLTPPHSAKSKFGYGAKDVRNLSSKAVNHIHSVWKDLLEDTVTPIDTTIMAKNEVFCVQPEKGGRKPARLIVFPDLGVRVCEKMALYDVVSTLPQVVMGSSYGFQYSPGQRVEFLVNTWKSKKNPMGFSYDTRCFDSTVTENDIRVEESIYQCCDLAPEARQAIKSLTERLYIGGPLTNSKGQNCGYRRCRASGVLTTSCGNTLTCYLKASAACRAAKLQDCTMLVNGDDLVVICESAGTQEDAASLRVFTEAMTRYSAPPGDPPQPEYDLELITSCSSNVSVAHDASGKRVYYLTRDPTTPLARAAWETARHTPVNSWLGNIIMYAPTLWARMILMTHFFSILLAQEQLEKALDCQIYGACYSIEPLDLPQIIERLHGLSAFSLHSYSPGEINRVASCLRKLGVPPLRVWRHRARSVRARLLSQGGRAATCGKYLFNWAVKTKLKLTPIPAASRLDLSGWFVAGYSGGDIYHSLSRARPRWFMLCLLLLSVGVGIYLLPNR

Compound	IC50 [1] [µM]	EC50 [2, 3] [µM]	Selectivity Index (CC50/EC50) [2]	EC50 ([2]; Hepatitis C virus, Huh-7, 24 h) [µM]	EC50 ([2]; read-out: EC50) [µM]	EC50 [2] [μM]
Cc1ccc(NC(=O)C(CCCCN)NC(=O)Nc2cccc(-c3ccccc3)c2)cc1 [Compound 127, (S)-6-AMINO-2-(3-BIPHENYL-3-YL-UREIDO)-HEXANOIC ACID P-TOLYLAMIDE]	10 to 50	> 2	<20			
Cc1cc2cc(NC(=O)[C@H](CCCCN)NC(=O)Nc3ccc(-c4ccccc4)cc3)ccc2[nH]1 [Compound 94, (S)-6-AMINO-2-(3-BIPHENYL-4-YL-UREIDO)-HEXANOIC ACID (2-METHYL-1H-INDOL-5-YL)-AMIDE]	< 10	> 2	<20			
NCCCC[C@@H](NC(=O)Nc1ccc(-c2ccccc2)cc1)C(=O)Nc1ccc(C2CCCCC2)cc1 [Compound 142, (R)-6-AMINO-2-(3-BIPHENYL-4-YL-UREIDO)-HEXANOIC ACID (4-CYCLOHEXYL-PHENYL)-AMIDE]	< 10	< 0.5	<20			
Cc1ccc(NC(=O)C(CNC(=O)CN)NC(=O)Nc2ccc(OCc3ccccc3)cc2)cc1 [Compound 268, (S)-3-(2-AMINO-ACETYLAMINO)-2-[3-(4-BENZYLOXY-PHENYL)-UREIDO]-N-P-TOLYL-PROPIONAMIDE]	10 to 50	> 2	<20			
CC1CCC(NC(=O)[C@H](CCCCN)NC(=O)Nc2ccc(OCc3ccccc3)cc2)CC1 (stereo partly drawn) [Compound 264, (S)-6-AMINO-2-[3-(4-BENZYLOXY-PHENYL)-UREIDO]-HEXANOIC ACID (4-METHYL-CYCLOHEXYL)-AMIDE]	10 to 50	< 0.5	>100			
NCCCC[C@H](NC(=O)OCC1c2ccccc2-c2ccccc21)C(=O)Nc1ccc(CN)cc1 [Compound 228, (S)-[5-AMINO-1-(4-AMINOMETHYL-PHENYLCARBAMOYL)-PENTYL]-CARBAMIC ACID 9H-FLUOREN-9-YLMETHYL ESTER]	< 10		20 to 100	0.5		
Cc1ccc(NC(=O)[C@H](CCCCN)NC(=O)CNc2cccc(Oc3ccccc3)c2)cc1 [Compound 367, (S)-6-AMINO-2-[2-(3-PHENOXY-PHENYLAMINO)-ACETYLAMINO]-HEXANOIC ACID P-TOLYLAMIDE]	< 10	> 2	<20			
Cc1ccc(NC(=O)[C@H](CCCCN)NC(=O)Nc2ccc3c(c2)Cc2ccccc2-3)cc1 [Compound 125, (S)-6-AMINO-2-[3-(9H-FLUOREN-2-YL)-UREIDO]-HEXANOIC ACID P-TOLYLAMIDE]	< 10		<20		> 2	
Cc1cc2cc(NC(=O)[C@H](CCNC(=O)CN)NC(=O)Nc3ccc4c(c3)Cc3ccccc3-4)ccc2[nH]1 [Compound 240, (S)-4-(2-AMINO-ACETYLAMINO)-2-[3-(9H-FLUOREN-2-YL)-UREIDO]-N-(2-METHYL-1H-INDOL-5-YL)-BUTYRAMIDE]	10 to 50	> 2	<20			
Cc1ccc(NC(=O)[C@@H](CCCCN)NC(=O)Nc2ccc3c(c2)Cc2ccccc2-3)cc1 [Compound 173, (R)-6-AMINO-2-[3-(9H-FLUOREN-2-YL)-UREIDO]-HEXANOIC ACID P-TOLYLAMIDE]	< 10		<20			2 to 0.5
COC(=O)c1ccc(COc2ccc(NC(=O)NC(CCCCN)C(=O)Nc3ccc(C)cc3)cc2)cc1 [Compound 199, (S)-4-{4-13-(5-AMINO-1-P-TOLYLCARBAMOYL-PENTYL)-UREIDO]-PHENOXYMETHYL}-BENZOIC ACID METHYL ESTER]	10 to 50	0.5 to 2	20 to 100			
Cc1ccc(NC(=O)[C@H](CCCCN)NS(=O)(=O)c2ccccc2)cc1 [Compound 387, (S)-6-AMINO-2-BENZENESULFONYLAMINO-HEXANOIC ACID P-TOLYLAMIDE]	> 50					
